According to PMC12452389, “Arginine-Derived Cationic Surfactants Containing Phenylalanine and Tryptophan: Evaluation of Antifungal Activity, Biofilm Eradication, Cytotoxicity, and Ecotoxicity” (Journal of Xenobiotics, 2025):
Where a name gives a salt, the structure may show the parent alone. Read-outs that look alike come from different tables or passages of the source. Peptide text beside a SMILES is read from it. * marks the point of attachment. Lauroyl = CCCCCCCCCCCC(=O)*

Assays:
[1] = Cytotoxicity, MTT assay; format: cell-based, Swiss mouse; settings: mouse, 3T3 fibroblast cells, 3T3, MTT, read-out: cell viability; for viability at 24 h, 50 µg/mL: at 50 µg/mL; for viability at 24 h, 100 µg/mL: at 100 µg/mL
Procedure: (§1) Immortal human keratinocyte cells (HaCaT) and […] (3T3) were obtained from Celltec, University of Barcelona. Dulbecco’s Modified Eagle Medium (DMEM) (4.5 g/L glucose) supplemented with 10% (v/v) FBS, 2 mM L-glutamine, 100 U/mL of penicillin, and 100 μg/mL of streptomycin was used to grow the cells in 75 cm^2 culture flasks at 37 °C with a continuous supply of CO2 at a 5% level. Once cells reached about 80% confluence, they were trypsinized with trypsin-EDTA.
(§2) Cells were first grown into the central 60 wells of a 96-well plate under 5% CO2 at 37 °C for 24 h. The DMEM was removed, and cells were exposed to different concentrations of each amphiphile diluted in DMEM supplemented with 5% FBS for 24 h. Finally, two different assays for quantification were used.
(§3) This method relies on the ability of living cells to reduce the yellow MTT reagent into insoluble purple formazan crystals. After the cells were incubated with the surfactants’ solutions, the medium was eliminated, and 100 μL of MTT in PBS (5 mg/mL) diluted 1:10 in culture medium (without phenol red and FBS) was added to each well and co-incubated for 3 h. Then, the medium was discarded, and DMSO was added into each well to solubilize the formazan crystals. Finally, the absorbance of the resulting solutions was measured at 550 nm using a microplate reader (Bio-Rad 550 Hercules, CA, USA).
(§4) The cytotoxic effects of these cationic surfactants were also evaluated using two different cell lines. The use of in vitro cytotoxicity tests is increasing daily, driven by the rise in human exposure to chemicals, as these tests are less costly and time-consuming than in vivo methods. The purpose of in vitro cytotoxicity tests is to detect the biocompatibility of these new surfactants. In this work, the cellular response upon incubation with the different surfactant series was evaluated in two representative skin cell lines: Swiss mouse fibroblasts (3T3 cell line) and human-derived keratinocytes (HaCaT cell line). The in vitro cytotoxicity was determined using the MTT as a measure of mitochondrial activity and the Neutral Red Uptake (NRU) related to lysosomal integrity, which are the most commonly used in vitro cytotoxicity endpoint methods. The cellular response at different concentrations (5, 25, 50, and 100 µM) was evaluated after 24 h of incubation.

[2] = Cytotoxicity, MTT assay; format: cell-based; settings: human, HaCaT keratinocyte cells, read-out: cell viability; for viability at 24 h, 50 µg/mL: at 50 µg/mL
Procedure: as §1, §2, §3
as §4, with “The use of in vitro cytotoxicity tests is increasing daily, driven by the rise in human exposure to chemicals, as these tests are less costly and time-consuming than in vivo methods. The purpose of in vitro cytotoxicity tests is to detect the biocompatibility of these new surfactants.” left out

[3] = Cytotoxicity, Neutral Red Uptake (NRU) assay; format: cell-based, Swiss mouse; settings: mouse, 3T3 fibroblast cells, 3T3, NRU, across the full concentration range, read-out: cell viability
Procedure: as §1, §2
(§5) The NRU assay is based on the accumulation of neutral red dye within the lysosomes of viable, intact cells. Once the cells were incubated with the surfactants, the DMEM was removed, and the NRU dye solution (50 μg/mL dissolved in the medium without FBS and phenol red) was added to each well, and the reaction was allowed for 2 h. The cells were washed with PBS, and 100 μL of an aqueous solution containing 50% absolute ethanol and 1% acetic acid was then added to each well to extract the incorporated dye. The microplates were then stirred for 5 min at 25 °C to facilitate dissolution. Finally, the absorbance of the resulting solutions was measured at λ = 550 nm using a Bio-Rad 550 microplate reader (Hercules, CA, USA).
as §4

[4] = design: method as in PMID 36559096; settings: CO2 Headspace test, pass level 60%; cited from earlier work
[5] = tested on: 3T3 cells; test: Cytotoxicity, Neutral Red Uptake (NRU) assay; format: cell-based, Swiss mouse; settings: 3T3, NRU, 24 h; moderate toxicity (TANHC12, PANHC12), onset of dramatic toxicity (PNHC12)
Procedure: as §1, §2, §5, §4

[6] = tested on: C. albicans biofilms; test: Eradication of mature biofilm, MTT method; format: cell-based, Candida albicans; settings: for concentration removing the total viability of the biofilm: 24 h treatment
Procedure: (§6) Candida strains were cultured in SBA at 30 °C for 24 h. Yeast cells were then suspended in RPMI 1640 broth to a final concentration of 1.5 × 10^7 CFU/mL. For mature biofilm formation, 200 μL of these suspensions was transferred to each well of a 48-well microplate and incubated at 30 °C for 24 h. After incubation, the plate was washed with phosphate-buffered saline (PBS) to remove non-adherent cells. Then, surfactant solutions at various concentrations (200 μL), prepared in RPMI 1640, were added to the wells containing the mature biofilms. Plates were incubated again at 30 °C for 24 h. Following this treatment, the RPMI medium was removed, and wells were washed twice with PBS. To assess biofilm viability, 200 μL of MTT solution (3-(4,5-dimethylthiazol-2-yl)-2,5-diphenyltetrazolium bromide) were added to each well, and plates were incubated for 4 h. After incubation, the MTT solution was removed, and 200 μL of dimethyl sulfoxide (DMSO) were added to solubilize the formazan crystals. Absorbance at 540 nm (A540) was then measured using a microplate reader. Controls without the amino acid-based surfactants were included. All experiments were made in quadruplicate, and the results were averaged to ensure accuracy and reproducibility.
(§7) In this section, we have tested the ability of these cationic surfactants to eradicate mature fungal biofilms of C. albicans and C. tropicalis. Preformed biofilms of these two strains on 48-well plates were exposed to various concentrations of the synthesized surfactants, and the biofilm was not removed after the treatment was quantified using the MTT method (3-[4,5-dimethylthiazol-2-yl]-2,5 diphenyl tetrazolium bromide) (Figure 4). This method detects viable and metabolically active cells within the biofilm by measuring the reduction in MTT to formazan by active mitochondrial enzymes.

[7] = tested on: C. tropicalis biofilms; test: Eradication of mature biofilm, MTT method; format: cell-based, Candida tropicalis; settings: 24 h treatment
Procedure: as §6, §7

[8] = tested on: 3T3 cells; test: Cytotoxicity, MTT assay; format: cell-based, Swiss mouse; settings: Mus musculus, NIH3T3; 3T3, MTT, 24 h; read from viability curves
Procedure: as §1, §2, §3, §4

Row | Structure (SMILES) | biodegradation [4] | concentration at which toxicity was seen [5] | concentration removing the total viability of the biofilm [6] | concentration removing the total viability of the biofilm [7] | also measured
1 | CCCCCCCCCCCC(=O)NC(CCCNC(=N)N)C(=O)OC (centres unmarked) [C12AM] | over 60% |  |  |  | viability at 24 h ([1]; across all concentrations up to 100 µg/mL): > 85%; viability at 24 h, 50 µg/mL [2]: ~90%; viability at 24 h [3]: 100%
2 | CCCCCCCCCCCCNC(=O)C(CCCNC(=N)N)NC(=O)C(N)Cc1c[nH]c2ccccc12 (centres unmarked) [TANHC12] | did not reach this pass level | around 50 µg/mL |  |  | 
3 | CCCCCCCCCCNC(=O)C(CCCNC(=N)N)NC(=O)C(N)Cc1c[nH]c2ccccc12 (centres unmarked) [TANHC10] |  |  |  |  | viability at 24 h ([2]; across the concentration range (TANHCn series)): ~80%
4 | CCCCCCCCCCCCNC(=O)C(CCCNC(=N)N)NC(=O)C(N)Cc1ccccc1 (centres unmarked) [PANHC12, phenylalanine-arginine dodecyl amide dihydrochloride] | did not reach this pass level | around 50 µg/mL | ≈ 50 μM | ≈ 50 μM | viability at 24 h, 50 µg/mL [1]: ~70%; viability at 24 h, 100 µg/mL [1]: 5%
5 | CCCCCCCCCCCCCCNC(=O)C(CCCNC(=N)N)NC(=O)C(N)Cc1ccccc1 (centres unmarked) [PANHC14] |  |  | ≈ 50 μM | ≈ 50 μM | 
6 | CCCCCCCCCCCCNC(=O)C(N)Cc1ccccc1 (centres unmarked) [PNHC12, phenylalanine dodecyl amide hydrochloride] | did not reach this pass level | 5000 ng/mL |  |  | viability at 24 h, 50 µg/mL [1]: ~0%; IC50 [8]: < 50 µg/mL; viability at 24 h, 50 µg/mL [2]: 0%
7 | CCCCCCCCCCCC(=O)NC(Cc1ccccc1)C(=O)NC(CCCNC(=N)N)C(=O)OC (stereo not drawn) [C12PAM] (Lauroyl-Phe-Arg-OMe; configuration not given here) | over 60% |  |  |  | reduction of the metabolic activity of the biofilm ([6]; highest concentration tested): less than 65%; viability at 24 h, 100 µg/mL [1]: ~60%; viability at 24 h [3]: 60 to 100%
8 | CCCCCCCCCCNC(=O)C(CCCNC(=N)N)NC(=O)C(N)Cc1ccccc1 (centres unmarked) [PANHC10] |  |  | ≈ 400 μM | ≈ 400 μM | 
